From patent US20250345370A1, “MICROBIAL LIBERATION OF N-METHYLSEROTONIN FROM ORANGE FIBER” (Washington University, priority 2022, published 2025) come the findings set out here.

A short description of the series: N-methylserotonin in drinking water of germ-free mice: body weight, epididymal fat, intake, survival. Format: in vivo, germ-free C57BL/6J mice. The conditions noted are these: for epididymal fat mass: vs untreated controls. The protocol:
For experiments involving administration of N-methylserotonin to germ-free mice, a stock solution of the compound (100 mg/mL, Santa Cruz Biotechnologies) was prepared in sterile water and filter sterilized ([…]; Nalgene). The outer surface of tubes containing the stock solution was sterilized with Clidox (Pharmacal) and the tubes were introduced into gnotobiotic isolators using standard procedures. The stock solution was then diluted in darkened glass water bottles (Ancare) in order to administer doses of 1 mg/kg/day or 50 mg/kg/day (based on an experimentally determined average consumption of 5 mL of water/day/mouse). Every four days, bottles were replaced with new ones containing fresh N-methylserotonin. Each of the three arms of the experiment, including the control arm where unsupplemented drinking water was administered, consisted of 5 mice.
Fecal samples and body weights were collected weekly, while food and water intake were monitored daily by comparing pellet mass in the food hopper and the volume of water in water bottles at the beginning and end of a 24 h period and dividing these values by the number of mice per cage. All animals were euthanized between 0830 h and 0930 h without prior fasting. Luminal contents from the proximal and distal halves of the small intestine, the cecum and the colon, host tissues (liver, epididymal fat pads, gastrocnemius muscle, the distal quarter of the small intestine (ileum), cecum and entire colon) plus serum were collected, flash frozen in liquid nitrogen and stored at −80° C. prior to analyses.
Host effects of N-methylserotonin. To characterize the effects of N-methylserotonin on host physiology and metabolism, 12-week-old germ-free C57BL/6J mice were fed the unsupplemented HiSF-LoFV diet and administered N-methylserotonin via their drinking water at doses of 1 mg/kg/day or 50 mg/kg/day for 21 days (FIG. 2A). The 1 mg/kg/day dose was experimentally determined to result in fecal N-methylserotonin levels that were equivalent to those documented in mice colonized with the 14-member community consuming the orange fiber-supplemented HiSF-LoFV diet (133.5±15 ng/g versus 131±19 ng/g feces, respectively; p=0.92, unpaired t-test). The 50 mg/kg/d dose was equivalent to the estimated total amount of N-methylserotonin consumed each day in the 10% orange fiber-containing diet (based on the yield obtained after in vitro enzymatic digestion of the fiber with T. reesei cellulase).

On to `CNCCc1c[nH]c2ccc(O)cc12` [N-methylserotonin], for which the epididymal fat mass result reads like this: (1 mg/kg/day (lower dose)) “not the lower dose”; (50 mg/kg/day (higher dose)) “statistically significant reduction”. Also, for the setting “50 mg/kg/day group, 5 mice”, the mortality result is given as “one animal died within the first week”. Also, the weight gain entry (drinking water, 21 days, vs untreated) was “statistically significant decrease in weight gain”. The “food and water intake” value (measured daily, all three groups) is recorded as “remained consistent”.
